Holding throughout (format): cell-based
Test [1] concerns A. baumannii ATCC 17978 ColR. The experiment in a line: Resistance profile of bacterial strain.
Test [2] has as its system P. aeruginosa PAO1. The test is described as follows: Resistance profile of bacterial strain.
Test [3] concerns A. baumannii ATCC 17978. The experiment in a line: Resistance profile of bacterial strain.
The test system of test [4] is A. baumannii NCTC 10303. The experiment in a line: Resistance profile of bacterial strain.
Test [5] relates to A. baumannii NCTC 13302. The test is described as follows: Resistance profile of bacterial strain.
Test [6] concerns Klebsiella pneumoniae (NCTC 13368). The test is described as follows: Bacterial impedance flow cytometry of antimicrobial peptides. Particulars: at the concentrations tested. As for the experimental part: The method for determining the efficacy of different membrane penetrating peptide antimicrobials is essentially the same as for Example 1. Briefly, colonies are picked from plate carrying bacteria from a clinical sample (e.g. a urine sample from suspected UTI) into Tryptone soy broth (TSB) and incubated for 30 minutes prior to addition of the membrane penetrating peptide antimicrobial preparation. The incubation is typically carried out at 37° C. with shaking. […] The concentrations are selected to span the minimum inhibitory concentration of the two strains, as might be used clinically for an antimicrobial breakpoint determination. Optionally, the bacterial impedance flow cytometry method may be used to generate a measurement of the minimum inhibitory concentration or a fixed concentration is used on the basis of a resistant/susceptible breakpoint. The sample is incubated at 37° C. for 30 or 60 minutes in a static incubator at 37° C. The population at each timepoint is analysed using bacterial impedance flow cytometry and the data collected and analysed to measure both the viable cell number and any migration of the cell population out of a contour enclosing a percentage of a control or untreated population of the same species.
The bacterial impedance of the population was measured. […]
In general terms: In flow cytometry, cells or beads pass a laser one at a time.

Regarding `O=C(O)c1cn(C2CC2)c2cc(N3CCNCC3)c(F)cc2c1=O` [Ciprofloxacin], the Resistance profile result is “Colistin-Resistant Ciprofloxacin-Resistant;” in test [1]; “Resistant” in test [2]; “Resistant” in test [3]; “Resistant” in test [4]; “Resistant” in test [5].

As for `CC[C@H](C)[C@H](NC(=O)CN)C(=O)NCC(=O)N[C@@H](C)C(=O)N[C@H](C(=O)N[C@@H](CC(C)C)C(=O)N[C@@H](CCCCN)C(=O)N[C@H](C(=O)N[C@@H](CC(C)C)C(=O)N[C@H](C(=O)N[C@H](C(=O)NCC(=O)N[C@@H](CC(C)C)C(=O)N1CCC[C@H]1C(=O)N[C@@H](C)C(=O)N[C@@H](CC(C)C)C(=O)N[C@H](C(=O)N[C@@H](CO)C(=O)N[C@@H](Cc1c[nH]c2ccccc12)C(=O)N[C@H](C(=O)N[C@@H](CCCCN)C(=O)N[C@@H](CCCNC(=N)N)C(=O)N[C@@H](CCCCN)C(=O)N[C@@H](CCCNC(=N)N)C(=O)N[C@@H](CCC(N)=O)C(=O)N[C@@H](CCC(N)=O)C(N)=O)[C@@H](C)CC)[C@@H](C)CC)[C@@H](C)O)[C@@H](C)O)C(C)C)C(C)C` [melittin], the “Susceptibility of NCTC 13368 relative to NCTC 12923” value in test [6] is given as “lower susceptibility”.

As for Colistin, the Resistance profile result in test [1] was “Colistin-Resistant Ciprofloxacin-Resistant;”; in test [2], “Sensitive”; in test [3] it was “Sensitive”; in test [4], “Sensitive”; in test [5] it was “Sensitive”.

Take Gentamicin: the Resistance profile result in test [1] is given as “Resistant”; in test [2], “Resistant”; in test [3], “Resistant”; in test [4], “resistant”; in test [5], “Gentamicin- Resistant; Imipenem -Resistant;”.

Turning to Piperacillin/tazobactam, the Resistance profile entry is “Piperacillin/tazobactam -Sensitive” in test [1]; “Piperacillin/tazobactam -Sensitive” in test [2]; “Piperacillin/tazobactam -Sensitive” in test [3]; “Piperacillin/tazobactam -sensitive” in test [4]; “Piperacillin/tazobactam -Resistant” in test [5].

The values are drawn from US12618096B2, “Rapid screen for antibiotic resistance and treatment regimen” (priority 2020, dated 2026).
